Measurements: patent US20080200403A1, “9A-Carbamoyl and Thiocarbamoyl Azalides with Anti-Inflammatory Activity” (GLAXOSMITHKLINE, priority 2005, published 2008)
Read-outs that look alike come from different tables or passages of the source.

Legend:
Type in all cases: cell-based
[1] = test system: TNF-α; assay: Inhibition of TNF-α production by stimulated human peripheral blood leukocytes in vitro; settings: PBL; for inhibition at 10 µM / inhibition at 50 µM: Homo sapiens, Leukocyte, read-out: Percentage of inhibition of TNF-α production
In short: (§1)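 Dextran-isolated human PBL (3-5×10^6 per well) in RPMI with 10% FCS were preincubated 2 h at 37 °C with compounds at 50 μM or 10 μM final, then stimulated overnight with 2 μg/mL LPS, 1 μg/mL PMA or 120 μg/mL zymosan. Supernatant cytokines by sandwich ELISA; % inhibition versus stimulated untreated control.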

[2] = test system: IL-1α; assay: Inhibition of IL-1 production by stimulated human peripheral blood leukocytes in vitro; settings: PBL; for inhibition at 10 µM / inhibition at 50 µM: Homo sapiens, Leukocyte, read-out: Percentage of inhibition of IL-1α production
[3] = test system: Hep G2; assay: MTT cytotoxicity assay on Hep G2 cell line
Description: To determine whether the anti-inflammatory activity of the test compounds was due to observed inhibition of cytokine production and inhibition of proliferation in vitro, and was not a consequence of cellular cytotoxicity, measurement of succinate dehydrogenase activity in living cells was performed. Cells were cultured for 24 h in RPMI medium as described above at 37° C. in the presence of the test compounds at concentrations of 50 μM and 12.5 μM. MTT [3-(4,5-dimethylthiazole-2-yl)-2,5-diphenyl tetrazolium bromide] (Promega, USA), a detection reagent, was then added and the cultures were incubated for 0.5-2 h. The amount of MTT-Formazan produced was determined using a spectrophotometer at 490 nm (Mosmann, J. Imnunol. Methods, 1983, 65: 55-63). Percentage of viable cells was calculated using the following formula:
% viable cells=([…]OD490 treated cells/OD490 nontreated cells)×100

[4] = test system: human peripheral blood mononuclear cells (PBMC); assay: Human T-cell proliferation in vitro (3H-thymidine incorporation); settings: for inhibition at 10 µM / inhibition at 50 µM: Homo sapiens, PBMC, read-out: Percentage of inhibition of proliferation of stimulated PBMC
Description: Influence of substances at two different concentrations (50 μM and 10 μM) on cell proliferation of human peripheral blood mononuclear cells (PBMC) was assessed.
Heparinized peripheral blood was obtained from healthy donors, and PBMC were isolated by Histopaque 1077 (Sigma, USA) density centrifugation at 400×g for 30 minutes. 5×10^4 cells/well were cultured for 3 days in the RPMI medium as described above, in the presence (positive control) or absence (negative control) of stimulators [PHA (2.5 μg/mL) (Sigma, USA), or both PMA (10 ng/mL) (Sigma, USA) and ionomycin (500 ng/mL) (Calbiochem, USA)], and in the presence of the test compounds, at 37° C. in an atmosphere of 5% CO2 and 90% humidity. The cells were pulsed with 1 μCi of ^3H-thymidine (Amersham, USA) per well during the last 18 h of the culture, and were harvested on the 96-well filter (Packard Bioscience, USA) using a multiple cell harvester (Packard, USA). The incorporation of ^3H-thymidine in activated cells were measured using TopCount NXT (Packard, USA).
Inhibition (as percentage) was calculated using the following formula: % inhibition=(1−(^3H)thymidine incorporation expressed in counts per minute (cpm) in sample/(^3H)thymidine incorporation expressed in cpm in positive control)×100
where positive control refers to stimulated samples, not treated with substances.

[5] = test system: IL-8; assay: Inhibition of IL-8 production by stimulated human peripheral blood leukocytes in vitro; settings: PBL; for inhibition at 10 µM / inhibition at 50 µM: Homo sapiens, Leukocyte, read-out: Percentage of inhibition of IL-8 production
In short: as §1

[6] = test system: IL-6; assay: Inhibition of IL-6 production by stimulated human peripheral blood leukocytes in vitro; settings: PBL; for inhibition at 10 µM / inhibition at 50 µM: Homo sapiens, Leukocyte, read-out: Percentage of inhibition of IL-6 production
In short: as §1

[7] = zymosan stimulated, compound 10 μM
[8] = zymosan stimulated, compound 50 μM
[9] = PMA + ionomycin stimulated, compound 10 μM
[10] = PMA + ionomycin stimulated, compound 50 μM

## CC[C@H]1OC(=O)[C@H](C)[C@@H](O[C@H]2C[C@@](C)(OC)[C@@H](O)[C@H](C)O2)[C@H](C)[C@@H](O[C@@H]2O[C@H](C)C[C@H](N(C)C)[C@H]2O)[C@](C)(O)C[C@@H](C)CN(C)[C@H](C)[C@@H](O)[C@]1(C)O [Azithromycin, azithromycin, reference compound]
[1]; LPS stimulated, compound 10 μM
  inhibition at 10 µM: 36%
[1]; LPS stimulated, compound 50 μM
  inhibition at 50 µM: 20%
[1]; PMA stimulated, compound 10 μM
  inhibition at 10 µM: 0%
[1]; PMA stimulated, compound 50 μM
  inhibition at 50 µM: 0%
[1]; [7]
  inhibition at 10 µM: 6%
[1]; [8]
  inhibition at 50 µM: 64%
[2]; LPS stimulated, compound 10 μM
  inhibition at 10 µM: 28%
[2]; LPS stimulated, compound 50 μM
  inhibition at 50 µM: 48%
[2]; PMA stimulated, compound 10 μM
  inhibition at 10 µM: 0%
[2]; PMA stimulated, compound 50 μM
  inhibition at 50 µM: 0%
[2]; [7]
  inhibition at 10 µM: 20%
[2]; [8]
  inhibition at 50 µM: 75%
[3]; human, 24 h, 12.5 μM
  Percentage of viable cells after treatment: 100%
[3]; human, 24 h, 50 μM
  Percentage of viable cells after treatment: >95%
[4]; PHA stimulated, compound 10 μM
  inhibition at 10 µM: 5%
[4]; PHA stimulated, compound 50 μM
  inhibition at 50 µM: 29%
[4]; [9]
  inhibition at 10 µM: 9%
[4]; [10]
  inhibition at 50 µM: 31%
[5]; LPS stimulated, compound 10 μM
  inhibition at 10 µM: 0%
[5]; LPS stimulated, compound 50 μM
  inhibition at 50 µM: 0%
[5]; PMA stimulated, compound 10 μM
  inhibition at 10 µM: 0%
[5]; PMA stimulated, compound 50 μM
  inhibition at 50 µM: 0%
[5]; [7]
  inhibition at 10 µM: 0%
[5]; [8]
  inhibition at 50 µM: 0%
[6]; LPS stimulated, compound 10 μM
  inhibition at 10 µM: 15%
[6]; LPS stimulated, compound 50 μM
  inhibition at 50 µM: 40%
[6]; PMA stimulated, compound 10 μM
  inhibition at 10 µM: 0%
[6]; PMA stimulated, compound 50 μM
  inhibition at 50 µM: 0%
[6]; [7]
  inhibition at 10 µM: 20%
[6]; [8]
  inhibition at 50 µM: 75%

## CCC1OC(=O)C(C)C(OC2CC(C)(OC)C(O)C(C)O2)C(C)C(OC2OC(C)CC(N(C)C)C2O)C(C)(O)CC(C)CN(C(=S)Nc2cccc(F)c2)C(C)C(O)C1(C)O (stereo not drawn) [Compound 3]
[1]; LPS stimulated, compound 10 μM
  Percentage of inhibition of TNF-α production: 45%
[1]; LPS stimulated, compound 50 μM
  Percentage of inhibition of TNF-α production: 74%
[1]; PMA stimulated, compound 10 μM
  Percentage of inhibition of TNF-α production: 37%
[1]; PMA stimulated, compound 50 μM
  Percentage of inhibition of TNF-α production: 75%
[1]; [7]
  Percentage of inhibition of TNF-α production: 71%
[1]; [8]
  Percentage of inhibition of TNF-α production: 94%
[2]; LPS stimulated, compound 10 μM
  Percentage of inhibition of IL-1α production: 52%
[2]; LPS stimulated, compound 50 μM
  Percentage of inhibition of IL-1α production: 30%
[2]; PMA stimulated, compound 10 μM
  Percentage of inhibition of IL-1α production: 4%
[2]; PMA stimulated, compound 50 μM
  Percentage of inhibition of IL-1α production: 0%
[2]; [7]
  Percentage of inhibition of IL-1α production: 75%
[2]; [8]
  Percentage of inhibition of IL-1α production: 74%
[3]; Hep G2, 24 h, compound 12.5 μM
  Percentage of viable cells after treatment: 100%
[3]; Hep G2, 24 h, compound 50 μM
  Percentage of viable cells after treatment: >85%
[4]; PHA stimulated, compound 10 μM
  Percentage of inhibition of proliferation of stimulated PBMC: 26%
[4]; PHA stimulated, compound 50 μM
  Percentage of inhibition of proliferation of stimulated PBMC: 100%
[4]; [9]
  Percentage of inhibition of proliferation of stimulated PBMC: 23%
[4]; [10]
  Percentage of inhibition of proliferation of stimulated PBMC: 92%
[5]; LPS stimulated, compound 10 μM
  Percentage of inhibition of IL-8 production: 38%
[5]; LPS stimulated, compound 50 μM
  Percentage of inhibition of IL-8 production: 81%
[5]; PMA stimulated, compound 10 μM
  Percentage of inhibition of IL-8 production: 61%
[5]; PMA stimulated, compound 50 μM
  Percentage of inhibition of IL-8 production: 47%
[5]; [7]
  Percentage of inhibition of IL-8 production: 40%
[5]; [8]
  Percentage of inhibition of IL-8 production: 88%
[6]; LPS stimulated, compound 10 μM
  Percentage of inhibition of IL-6 production: 13%
[6]; LPS stimulated, compound 50 μM
  Percentage of inhibition of IL-6 production: 79%
[6]; PMA stimulated, compound 10 μM
  Percentage of inhibition of IL-6 production: 24%
[6]; PMA stimulated, compound 50 μM
  Percentage of inhibition of IL-6 production: 9%
[6]; [7]
  Percentage of inhibition of IL-6 production: 59%
[6]; [8]
  Percentage of inhibition of IL-6 production: 81%

## CCC1OC(=O)C(C)C(O)C(C)C(OC2OC(C)CC(N(C)C)C2O)C(C)(O)CC(C)CN(C(=S)NCc2ccccc2)C(C)C(O)C1(C)O (stereo not drawn) [Compound 1]
[1]; LPS stimulated, compound 10 μM
  Percentage of inhibition of TNF-α production: 0%
[1]; LPS stimulated, compound 50 μM
  Percentage of inhibition of TNF-α production: 33%
[1]; PMA stimulated, compound 10 μM
  Percentage of inhibition of TNF-α production: 2%
[1]; PMA stimulated, compound 50 μM
  Percentage of inhibition of TNF-α production: 37%
[1]; [7]
  Percentage of inhibition of TNF-α production: 34%
[1]; [8]
  Percentage of inhibition of TNF-α production: 72%
[2]; LPS stimulated, compound 10 μM
  Percentage of inhibition of IL-1α production: 52%
[2]; LPS stimulated, compound 50 μM
  Percentage of inhibition of IL-1α production: 78%
[2]; PMA stimulated, compound 10 μM
  Percentage of inhibition of IL-1α production: 38%
[2]; PMA stimulated, compound 50 μM
  Percentage of inhibition of IL-1α production: 47%
[2]; [7]
  Percentage of inhibition of IL-1α production: 65%
[2]; [8]
  Percentage of inhibition of IL-1α production: 57%
[4]; PHA stimulated, compound 10 μM
  Percentage of inhibition of proliferation of stimulated PBMC: 21%
[4]; PHA stimulated, compound 50 μM
  Percentage of inhibition of proliferation of stimulated PBMC: 95%
[4]; [9]
  Percentage of inhibition of proliferation of stimulated PBMC: 10%
[4]; [10]
  Percentage of inhibition of proliferation of stimulated PBMC: 52%
[5]; LPS stimulated, compound 10 μM
  Percentage of inhibition of IL-8 production: 40%
[5]; LPS stimulated, compound 50 μM
  Percentage of inhibition of IL-8 production: 0%
[5]; PMA stimulated, compound 10 μM
  Percentage of inhibition of IL-8 production: 4%
[5]; PMA stimulated, compound 50 μM
  Percentage of inhibition of IL-8 production: 0%
[5]; [7]
  Percentage of inhibition of IL-8 production: 12%
[5]; [8]
  Percentage of inhibition of IL-8 production: 79%
[6]; LPS stimulated, compound 10 μM
  Percentage of inhibition of IL-6 production: 4%
[6]; LPS stimulated, compound 50 μM
  Percentage of inhibition of IL-6 production: 22%
[6]; PMA stimulated, compound 10 μM
  Percentage of inhibition of IL-6 production: 22%
[6]; PMA stimulated, compound 50 μM
  Percentage of inhibition of IL-6 production: 21%
[6]; [7]
  Percentage of inhibition of IL-6 production: 23%
[6]; [8]
  Percentage of inhibition of IL-6 production: 59%

## CC[C@H]1OC(=O)[C@H](C)[C@@H](O[C@H]2C[C@@](C)(OC)[C@@H](O)[C@H](C)O2)[C@H](C)[C@@H](O[C@@H]2O[C@H](C)C[C@H](N(C)C)[C@H]2O)[C@](C)(O)C[C@@H](C)CN(C(=S)Nc2cccc(C(F)(F)F)c2)[C@H](C)[C@@H](O)[C@]1(C)O [Compound 4]
[1]; LPS stimulated, compound 10 μM
  inhibition at 10 µM: 39%
[1]; LPS stimulated, compound 50 μM
  inhibition at 50 µM: 100%
[1]; PMA stimulated, compound 10 μM
  inhibition at 10 µM: 50%
[1]; PMA stimulated, compound 50 μM
  inhibition at 50 µM: 100%
[1]; [7]
  inhibition at 10 µM: 36%
[1]; [8]
  inhibition at 50 µM: 97%
[2]; LPS stimulated, compound 10 μM
  inhibition at 10 µM: 74%
[2]; LPS stimulated, compound 50 μM
  inhibition at 50 µM: 82%
[2]; PMA stimulated, compound 10 μM
  inhibition at 10 µM: 54%
[2]; PMA stimulated, compound 50 μM
  inhibition at 50 µM: 92%
[2]; [7]
  inhibition at 10 µM: 60%
[2]; [8]
  inhibition at 50 µM: 13%
[4]; PHA stimulated, compound 10 μM
  inhibition at 10 µM: 30%
[4]; PHA stimulated, compound 50 μM
  inhibition at 50 µM: 102%
[4]; [9]
  inhibition at 10 µM: 50%
[4]; [10]
  inhibition at 50 µM: 100%
[5]; LPS stimulated, compound 10 μM
  inhibition at 10 µM: 41%
[5]; LPS stimulated, compound 50 μM
  inhibition at 50 µM: 100%
[5]; PMA stimulated, compound 10 μM
  inhibition at 10 µM: 52%
[5]; PMA stimulated, compound 50 μM
  inhibition at 50 µM: 100%
[5]; [7]
  inhibition at 10 µM: 0%
[5]; [8]
  inhibition at 50 µM: 52%
[6]; LPS stimulated, compound 10 μM
  inhibition at 10 µM: 38%
[6]; LPS stimulated, compound 50 μM
  inhibition at 50 µM: 100%
[6]; [7]
  inhibition at 10 µM: 0%
[6]; [8]
  inhibition at 50 µM: 100%
